Measurements: publication PMC7909954 (eLife, 2021)
Several values for one entry are separate records, joined by “and”; a condition that tells them apart may be missing. Equal entries are not always repeated. Where two headings read alike, the source gives them in different places.

Key:
[1] = biological target: T1, DOR (Homo sapiens, UniProt P41143); assay: cell-based
[2] = biological target: T2, mDOR (Mus musculus, UniProt P32300); assay: biochemical; details: read-out: Emax mDOR [35S]GTPγS
[3] = biological target: T3, mKOR (Mus musculus, UniProt P33534); assay: biochemical
T3 sequence (P33534 whole entry): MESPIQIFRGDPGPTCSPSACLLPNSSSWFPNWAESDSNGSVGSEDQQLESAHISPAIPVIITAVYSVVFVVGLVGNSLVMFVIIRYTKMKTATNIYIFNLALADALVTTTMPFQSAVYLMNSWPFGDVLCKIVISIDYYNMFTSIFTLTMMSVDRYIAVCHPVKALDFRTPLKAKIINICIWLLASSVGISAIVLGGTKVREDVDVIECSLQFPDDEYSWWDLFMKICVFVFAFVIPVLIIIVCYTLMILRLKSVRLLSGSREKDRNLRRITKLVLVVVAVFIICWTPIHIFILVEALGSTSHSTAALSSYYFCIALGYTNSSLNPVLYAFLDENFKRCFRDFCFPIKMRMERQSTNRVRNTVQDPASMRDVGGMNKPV

[4] = biological target: T4, MOR (Homo sapiens, UniProt P35372); assay: cell-based; details: HEK-293T, read-out: Emax% cAMP inhibition hMOR
T4 sequence (P35372 whole entry): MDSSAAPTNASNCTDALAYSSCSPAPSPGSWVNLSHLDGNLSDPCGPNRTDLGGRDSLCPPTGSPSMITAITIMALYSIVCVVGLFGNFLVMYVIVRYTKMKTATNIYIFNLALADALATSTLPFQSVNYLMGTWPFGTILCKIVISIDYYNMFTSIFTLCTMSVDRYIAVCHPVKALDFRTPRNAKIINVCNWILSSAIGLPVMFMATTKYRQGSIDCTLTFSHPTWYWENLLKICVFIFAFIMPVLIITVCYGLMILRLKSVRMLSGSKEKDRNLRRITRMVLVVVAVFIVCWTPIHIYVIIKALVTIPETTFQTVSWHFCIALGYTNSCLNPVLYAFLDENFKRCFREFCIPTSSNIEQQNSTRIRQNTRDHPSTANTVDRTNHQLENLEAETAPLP

[5] = biological target: T5, mMOR (Mus musculus, UniProt P42866); assay: cell-based; parameters: expressed in transfected cells; host or cells: HEK-293T
T5 sequence (P42866 whole entry): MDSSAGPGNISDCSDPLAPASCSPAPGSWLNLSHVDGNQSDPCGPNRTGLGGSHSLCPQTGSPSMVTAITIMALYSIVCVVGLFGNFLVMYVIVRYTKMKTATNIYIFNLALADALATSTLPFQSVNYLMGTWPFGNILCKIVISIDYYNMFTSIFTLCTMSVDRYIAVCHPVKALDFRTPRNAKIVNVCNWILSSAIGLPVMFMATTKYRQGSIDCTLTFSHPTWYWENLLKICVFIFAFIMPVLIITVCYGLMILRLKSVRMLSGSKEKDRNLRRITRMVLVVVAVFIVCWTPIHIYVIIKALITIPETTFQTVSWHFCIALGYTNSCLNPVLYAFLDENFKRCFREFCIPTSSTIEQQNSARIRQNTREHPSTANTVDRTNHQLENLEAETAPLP

[6] = biological target: Y312W-hKOR (Homo sapiens, UniProt P41145, Y312W); assay: cell-based; details: read-out: Emax% cAMP inhibition Y312W-hKOR
Y312W-hKOR, sequence (P41145 whole entry Y312W): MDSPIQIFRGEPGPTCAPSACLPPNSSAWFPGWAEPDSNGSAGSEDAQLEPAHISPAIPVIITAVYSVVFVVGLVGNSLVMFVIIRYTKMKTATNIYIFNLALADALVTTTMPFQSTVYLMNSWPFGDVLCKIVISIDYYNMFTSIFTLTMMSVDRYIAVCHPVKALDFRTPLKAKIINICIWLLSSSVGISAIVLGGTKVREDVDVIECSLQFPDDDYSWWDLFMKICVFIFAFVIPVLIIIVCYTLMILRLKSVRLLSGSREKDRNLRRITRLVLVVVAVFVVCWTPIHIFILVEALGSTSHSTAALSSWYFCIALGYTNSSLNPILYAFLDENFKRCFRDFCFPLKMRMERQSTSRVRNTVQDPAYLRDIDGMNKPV

[7] = biological target: T2, mDOR; assay: cell-based
[8] = biological target: T6, KOR (Homo sapiens, UniProt P41145)
T6 sequence (P41145 whole entry): as the sequence (P41145 whole entry Y312W) above, with W312Y counted along it

[9] = biological target: T6, KOR; assay: cell-based
[10] = biological target: T2, mDOR; details: binding assays
[11] = biological target: T4, MOR
[12] = biological target: T1, DOR; assay: cell-based; details: for EC50: Tango
[13] = biological target: T5, mMOR; assay: biochemical
[14] = biological target: T5, mMOR; assay: cell-based
[15] = biological target: T6, KOR; assay: cell-based; remark: listed apart in the source
[16] = biological target: T7, rKOR (Rattus norvegicus, UniProt P34975); details: BRET, rodent receptors
T7 sequence (P34975 whole entry): as the sequence (P33534 whole entry) above, with D11E, S17A, S51P, A308V counted along it

[17] = test system: MOR KO, KOR KO and DOR KO mice; assay: 55°C warm-water tail-withdrawal assay in opioid receptor knock out mice; assay type: in vivo, mouse
[18] = biological target: T3, mKOR; assay: biochemical; remark: listed apart in the source
[19] = biological target: T7, rKOR; assay: cell-based
[20] = biological target: T5, mMOR; assay: biochemical; remark: listed apart in the source
[21] = transduction coefficient log(T/KA)
[22] = DOR KO mice, 100 nmol i.c.v., 40 min, single mice and mean (n=8)
[23] = DOR KO mice, 100 nmol i.c.v., 110 min, single mice and mean (n=8)
[24] = MOR KO mice, 100 nmol i.c.v., 60 min, single mice and mean (n=8)
[25] = MOR KO mice, 100 nmol i.c.v., 70 min, single mice and mean (n=8)
[26] = MOR KO mice, 100 nmol i.c.v., 80 min, single mice and mean (n=8)
[27] = MP1207 30 nmol icv, MP1208 35 nmol icv

T1 sequence (P41143 whole entry): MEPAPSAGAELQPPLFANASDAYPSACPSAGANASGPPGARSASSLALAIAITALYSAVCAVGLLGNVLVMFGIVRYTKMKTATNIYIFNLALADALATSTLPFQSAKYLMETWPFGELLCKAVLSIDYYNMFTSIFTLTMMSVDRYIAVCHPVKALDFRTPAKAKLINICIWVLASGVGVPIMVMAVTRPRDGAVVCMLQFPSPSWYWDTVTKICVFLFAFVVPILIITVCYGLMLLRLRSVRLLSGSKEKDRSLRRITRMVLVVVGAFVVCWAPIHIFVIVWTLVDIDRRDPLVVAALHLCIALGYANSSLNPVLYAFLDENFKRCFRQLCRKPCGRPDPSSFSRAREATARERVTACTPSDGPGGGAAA
T2 sequence (P32300 whole entry): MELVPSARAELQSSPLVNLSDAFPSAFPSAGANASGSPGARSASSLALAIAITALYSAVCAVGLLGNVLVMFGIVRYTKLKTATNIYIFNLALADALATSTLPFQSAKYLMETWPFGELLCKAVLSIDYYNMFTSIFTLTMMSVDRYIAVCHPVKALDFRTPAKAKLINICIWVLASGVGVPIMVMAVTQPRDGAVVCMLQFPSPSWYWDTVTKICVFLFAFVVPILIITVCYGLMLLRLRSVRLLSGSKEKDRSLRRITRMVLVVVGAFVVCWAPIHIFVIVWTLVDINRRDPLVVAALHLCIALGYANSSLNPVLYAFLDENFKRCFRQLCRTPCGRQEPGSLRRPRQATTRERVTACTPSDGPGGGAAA

N=C(N)NCc1cccc(C(=O)N[C@@H]2CCC3C4Cc5ccc(O)c6c5[C@@]3(CCN4CC3CC3)C2O6)c1 (stereo partly drawn) [MP1208, N-((7R,12bS)−3-(Cyclopropylmethyl)−9-hydroxy-2,3,4,4a,5,6,7,7a-octahydro-1H-4,12-methanobenzofuro[3,2-e]isoquinolin-7-yl)−3-(guanidinomethyl)benzamide]
EC50 ([1]; EC50 cAMP inhibition hDOR): 2.49 nM | Emax ([1]; HEK-293T, read-out: Emax% cAMP inhibition hDOR): 39 ± 1.8% | Emax [2]: 10 to 15% | EC50 ([3]; EC50 mKOR [35S]GTPγS, ± SEM): 1.4 nM and 1.36 nM | Emax ([3]; read-out: Emax mKOR [35S]GTPγS): 43 ± 0.8% | Emax [4]: 42 ± 1.3% | arrestin recruitment at mMOR (in words) [5]: No recruitment of βarrestin-2 | Emax [6]: 97 ± 1% | EC50 ([7]; EC50 G protein activation (BRET) mDOR): 26.6 nM | Emax ([7]; HEK-293T, read-out: Emax% G protein activation (BRET) mDOR): 58 ± 3.3% | ΔΔlog RA (cAMP-Tango) hKOR [8]: 1.35±0.022 | Bias factor (cAMP-Tango) hKOR ([8]; >1 G protein bias, <1 arrestin bias, vs U50,488h): 22 | Log RA cAMP hKOR [8, 21]: 9.83±0.004 | LogRA Tango hKOR [8, 21]: 7.447±0.020 | ΔlogRA Tango hKOR ([8]; vs U50,488h): -0.697±0.022 | ΔlogRA cAMP hKOR ([8]; vs U50,488h): 0.65±0.005 | EC50 ([9]; EC50 cAMP inhibition hKOR): 0.14 nM | Emax ([9]; HEK-293T, read-out: Emax% cAMP inhibition hKOR): 96 ± 1.9% | selectivity for MOR and KOR over DOR [10]: more than 40 fold | arrestin recruitment at hMOR (in words) [11]: completely abolished | EC50 ([12]; EC50 arrestin recruitment hDOR): 3620 nM | Emax ([12]; HTLA, read-out: Emax% arrestin recruitment hDOR): 62 ± 16.7% | EC50 ([12]; pEC50 arrestin recruitment hDOR, ± SEM): 3160 nM | EC50 ([13]; EC50 mMOR [35S]GTPγS, ± SEM): 1.1 nM and 1.13 nM | Emax ([13]; read-out: Emax mMOR [35S]GTPγS): 54 ± 0.7% | EC50 ([14]; EC50 G protein activation (BRET) mMOR): 2.27 nM | Emax ([14]; HEK-293T, read-out: Emax% G protein activation (BRET) mMOR): 41 ± 3% | EC50 ([15]; EC50 arrestin recruitment (Tango) hKOR): 16.4 nM | Emax ([15]; HTLA, read-out: Emax% arrestin recruitment (Tango) hKOR): 48 ± 2.4% | EC50 ([15]; pEC50 arrestin recruitment (Tango) hKOR, ± SEM): 16.2 nM | arrestin recruitment at rKOR (in words) [16]: No recruitment of βarrestin-2 | 30 min (tail-withdrawal latency) ([17]; DOR KO mice, 100 nmol i.c.v., 30 min, single mice and mean (n=8)): 15 s and 8 s and 14.125 s | 40 min (tail-withdrawal latency) [17, 22]: 15 s and 14.7 s and 12.1 s and 14.6 s | %A-40 min (% antinociception) [17, 22]: 100% and 97.83% and 77.34% and 96.8962% | %A-100 min (% antinociception) ([17]; DOR KO mice, 100 nmol i.c.v., 100 min, single mice and mean (n=8)): 0% and 3.7% and 0.72% and 6.25% and 1.334% | 110 min (tail-withdrawal latency) [17, 23]: 1.4 s and 1.9 s and 1.3 s and 1.6 s and 1.5 s and 2.2 s and 1.5625 s | %A-110 min (% antinociception) [17, 23]: 0% and 2.96% and 2.9% and 0.7325% | 60 min (tail-withdrawal latency) [17, 24]: 1.3 s and 1.2 s and 1.5 s and 1.7 s and 1.4 s and 1.4375 s | %A-60 min (% antinociception) [17, 24]: 0% and 2.17% and 3.62% and 2.16% and 1.446% | 70 min (tail-withdrawal latency) [17, 25]: 1.3 s and 1.4 s and 1.8 s and 1.2 s and 1.35 s | %A-70 min (% antinociception) [17, 25]: 0% and 0.72% and 2.94% and 0.7275% | 80 min (tail-withdrawal latency) [17, 26]: 1.3 s and 1.1 s and 1.9 s and 1.2 s and 1.2875 s | %A-80 min (% antinociception) [17, 26]: 0% and 5.07% and 0.72% and 0.7238% | antinociception in DOR KO mice vs WT [17, 27]: remained intact | antinociception in KOR KO mice vs WT [17, 27]: attenuated | antinociception in MOR KO mice vs WT [17, 27]: attenuated | Ki [18]: 0.28 ± 0.02 nM | EC50 [19]: 1.07 nM | Emax ([19]; HEK-293T, read-out: Emax% G protein activation (BRET) rKOR): 40 ± 2.4% | Ki [20]: 0.34 ± 0.01 nM
